Results as given in PMC12454639, “Direct disassembly of α-syn preformed fibrils into α-syn monomers by an all-D-peptide” (NPJ Parkinson's Disease, 2025).

What was measured:
[1] = tested on: PC12 cells; type: cell-based; details: 15 µM peptide with 30 nM PFF; n = 4
Method: PC12 cells (Leibniz Institute DSMZ, GE) were cultivated on collagen A-coated (Biochrom GmbH, GE) tissue culture flasks in RPMI 1640 medium supplemented with 5% fetal calf serum and 10% horse serum in a 95% humidified atmosphere with 5% CO2 at 37 °C. 10,000 cells per well in a volume of 100 µl were seeded on collagen A-coated 96-well plates (Thermo Fisher Scientific, USA) and were incubated for 24 h at 37 °C and 300 rpm in a thermo cycler. […] In addition, 15 µM of the peptides alone, cell media, buffer without peptides and 0.1% Triton X-100 (cytotoxic compound) served as controls. After further incubation in a 95% humidified atmosphere with 5% CO2 at 37 °C for 24 h, cell viability was measured using the Cell Proliferation Kit I (MTT) (Roche Applied Science, CH) according to the manufacturer’s protocol. The MTT formazan product was quantified by measuring the absorbance at 570 nm corrected by subtraction of the absorbance at 660 nm in a FLUOStar Optima plate reader (BMG Labtech, GE). All results were normalized to untreated cells grown in medium only. Test on significance was performed using one-way ANOVA with Bonferroni post hoc analysis (OriginPro 2020, OriginLab, USA; n = 4).
Test on significance was performed using one-way ANOVA with Bonferroni post hoc analysis: * […], *** p ≤ 0.01. Mean data are shown with ±SD (n = 4). While the cell viability was reduced by 50 % in the presence of 30 nM soluble small α-syn PFF alone, no toxic effect of the compounds on PC12 was observed. […] Thus, similar cell viability saving effects were found for SVD-1a using a 30-fold lower concentration.

[2] = tested on: small α-syn PFF seeds; assay: Seeded ThT aggregation assay; type: biochemical; details: discussion statement
Method: The Thioflavin T (ThT) assay is commonly used for the visualization of α-syn fibrilization, since the dye ThT is able to bind to the amyloidogenic cross-β-sheet proportions of fibril structures. Recombinant α-syn was thawed on ice and centrifuged for 30 min at 21,000 × g and 4 °C. The concentration of the supernatant was determined as described previously. Lyophilized D-peptides were thawed at RT for 1 h and dissolved in 500 µl PBS pH 7.4. After centrifugation for 30 min at 21,000 × g the supernatant concentration was determined by UV–vis using the corresponding extinction coefficient at A280. All ThT assay experiments were performed at 37 °C with 15 µM ThT and 0.05% sodium azide (w/v) in PBS pH 7.4 if not otherwise stated. ThT fluorescence was monitored with bottom optics at λex = 448 nm and λem = 482 nm in a fluorescence plate reader with orbital averaging on 3 mm (Clariostar or Polarstar Optima, BMG labtech, GE). Prior to measurement start, 120 µl sample solution was transferred to a non-binding 96-half area well plate with transparent flat bottom (Corning, USA). One borosilicate glass bead (d = 3.0 mm, Hilgenberg, GE) was added to each well for all de novo aggregation assays. For seeded aggregation assays, no bead was used, and samples were incubated under quiescent conditions. Wells that surrounded the sample wells were filled with the same volume of buffer to improve heat distribution. Experiments were performed with five replicates (n = 5) if not otherwise stated.
ThT assay was used for different purposes. […] Lag-time and t½ were calculated as described previously. […] Measurements were taken every 5 min (n = 3).
small α-syn PFF seeds were prepared as described previously with some modifications. First, insoluble PFF were produced by incubation of 300 µM recombinant α-syn in a LoBind reaction tube (Eppendorf GmbH, GE) with one borosilicate glass bead (d = 3.0 mm; Hilgenberg, DE) in 20 mM NaPi, pH 7.0, 150 mM NaCl, 0.05% (w/v) sodium azide for one week at 37 °C. The insoluble PFF were harvested by ultracentrifugation at 100,000 × g for 30 min at 4 °C, and the pellet was washed several times with 20 mM NaPi, pH 7.0, 150 mM NaCl. The monomer equivalent concentration was determined by measuring the α-syn concentration in the supernatant after the first centrifugation and subtracting it from the start concentration for fibrilization. […]
ThT fluorescence progression was measured in a 96-well non-binding half-area plate (Corning, USA) with a FLUOStar platereader (BMG labtech, GE) at λex = 448 nm and λem = 482 nm. […] 10 µM α-syn monomer was incubated with 5, 10 and 20 µM peptide at 37 °C, adding one borosilicate glass bead per well (d = 3.0 mm, Hilgenberg, GE) with continuous orbital shaking at 300 rpm in between reads. […]

[3] = tested on: α-synA53T–YFP (HEK293T cells); assay: Seeded intracellular aggregation in α-synA53T–YFP cells; type: cell-based, human; details: day 3
Description: Fig. 5 SVD-1a inhibits seeded α-syn aggregation in cells. To validate the inhibitory effect of SVD-1a in cells, we used the α-synA53T–YFP cell system, which stably expresses human α-syn with the familial A53T mutation fused to YFP in HEK293T cells and enables fluorescence-based detection of aggregates that show up as highly fluorescent spots within the cells, clearly above background, intracellularly after seeding with small α-syn PFF seeds. In order to avoid interference of the peptide with the uptake of small α-syn PFF seeds, we performed a two-step transfection starting with a first transfection of the peptide and a second transfection with PFFs. […] To quantify the number of cells with aggregates in our images and to avoid experimental bias, we used a fully automated algorithm for image analysis. […] One asterisk denotes p values < 0.05 and three asterisks a p value < 0.001. Error bars indicate standard deviation. […] Treatment with increasing concentrations of SVD-1a, here imaged at 25 µM, led to a concentration-dependent reduction in the number of cells with aggregates (H-J). Panels B, E, and H show nuclei stained with Hoechst 33342. Panels C, F, and I show αSynA53T–YFP fluorescence. Panels D, G, and J show merged images. The scale bar in J represents 100 µm and applies to all panels. The viability of the cells was not reduced by transfection with seeds or in SVD-1a, as shown in Supplementary Fig. 15. Confirmation that highly fluorescent aggregates contain α-syn is shown in Supplementary Fig. 14 by co-immunostaining with syn-211 antibody, anti-α-syn (phospho S129) antibody and 5G4 antibody.
A construct encoding full-length A53T-mutated human α-syn fused with YFP at the C-terminus was synthesized and introduced into the pMK–RQ expression vector (GeneArt; Thermo Fisher Scientific, USA). The α-synA53T–YFP construct was subcloned into the pIRESpuro3 vector (Clontech; Takara Bio, JPN) using NheI (5′) and NotI (3′) restriction sites. HEK293T cells (American Type Culture Collection) were cultured in high-glucose Dulbecco’s modified Eagle’s medium (DMEM; Sigma-Aldrich, USA) supplemented with 10% fetal calf serum (Sigma-Aldrich, USA), and 50 units/ml penicillin as well as 50 μg/ml streptomycin (Sigma-Aldrich, USA). Cells were cultured in a humidified atmosphere of 5% CO2 at 37 °C. Cells plated in DMEM were transfected using Lipofectamine 2000 (Invitrogen; Thermo Fisher Scientific, USA). Stable cells were selected in DMEM containing 1 μg/ml puromycin (EMD Millipore, USA). Monoclonal lines were generated by fluorescence-activated cell sorting of a polyclonal cell population in 96-well plates using a MoFlo XDP cell sorter (Beckman Coulter, USA). Finally, the clonal cell line B5 was selected from among 24 clonal cell lines and is referred to as αSynA53T–YFP cells. Peptides were incubated with 1.5% Lipofectamine 2000 in OptiMEM for 2 h at room temperature. […] On day 3 the cells were imaged with an IN Cell Analyzer 6500HS System (Cytiva, USA) using the blue and green fluorescence channel, and analyzed using IN Carta Image Analysis Software (Cytiva, USA) after an algorithm was established to identify intracellular aggregates in living cells. For each condition, we used four wells and took 16 images per well, which were analyzed by a fully automated algorithm to avoid bias. […]

[4] = tested on: monomeric α-syn; assay: Affinity of negative-control peptide to monomeric α-syn (method not given); type: binding; details: negative-control peptide kgvgnleyqlwalegk-NH2; method not stated
[5] = tested on: α-synA53T–YFP cells (HEK293T)

ihyawtphtkhmqewe-NH2 [SVD-1_scrambled, reference compound]
cell viability saving effect [1]: Slight increase of cell viability saving effect

ihyawtphtrhlqewerrrrr-NH2 [SVD-1_scrambled+5r, reference compound]
effect of control peptide relative to SVD-1 in seeded assay [2]: improved effects compared to the parental sequence SVD-1 in the seeded assay

kgvgnleyqlwalegk-NH2 [negative-control peptide, reference compound]
aggregate-positive cells ([3]; 25 µM peptide, transfected, then 30 nM small α-syn PFF seeds): 85%
inhibition of intracellular seeded α-syn aggregation ([3]; peptide transfection, then 30 nM PFF seeds): not
affinity to monomeric α-syn [4]: no affinity to monomeric α-syn
cell viability, PFF-seeded α-synA53T–YFP cells [5]: did not induce significantly different luminescence in comparison to unseeded cells or seeded cells without peptide treatment
